Columns and labels:
[1] = Solid oral delivery of acyclovir in rats (plasma acyclovir by LC-MS-MS); assay type: in vivo, Male Sprague Dawley rats; details: oral tablet, acyclovir 25 mg/kg, no delivery agent
Source text: An oral dosing tube was used.
Results from the animals in each group were averaged for each time point.

[2] = orally administered; cited from earlier work

Nc1nc2c(ncn2COCCO)c(=O)[nH]1 [Acyclovir, 9-(2-hydroxyethoxymethyl)guanine]
Mean plasma peak of Acyclovir (ng/ml) ± SD [1]: 95.11 ± 73.75 ng/mL
bioavailability [2]: 15-30%
